Assay results published in ChEMBL document CHEMBL1201862, “PubChem BioAssay data set” (2004).
Activity calls are given as the source filed them. Cut-off read from the data, not from the text of the source: actives have a measured IC50 and inactives only a lower limit.

Each molecule was assayed against Envelope glycoprotein gp160 (Human immunodeficiency virus 1, UniProt Q6QLK5) (assay: cell-free HIV fusion peptide-binding blockers – biochemical, uHTS, fluorescence dequenching, […] (AID 1986)).
Chain of Envelope glycoprotein gp160 (Q6QLK5 whole entry, the tested form may be a part): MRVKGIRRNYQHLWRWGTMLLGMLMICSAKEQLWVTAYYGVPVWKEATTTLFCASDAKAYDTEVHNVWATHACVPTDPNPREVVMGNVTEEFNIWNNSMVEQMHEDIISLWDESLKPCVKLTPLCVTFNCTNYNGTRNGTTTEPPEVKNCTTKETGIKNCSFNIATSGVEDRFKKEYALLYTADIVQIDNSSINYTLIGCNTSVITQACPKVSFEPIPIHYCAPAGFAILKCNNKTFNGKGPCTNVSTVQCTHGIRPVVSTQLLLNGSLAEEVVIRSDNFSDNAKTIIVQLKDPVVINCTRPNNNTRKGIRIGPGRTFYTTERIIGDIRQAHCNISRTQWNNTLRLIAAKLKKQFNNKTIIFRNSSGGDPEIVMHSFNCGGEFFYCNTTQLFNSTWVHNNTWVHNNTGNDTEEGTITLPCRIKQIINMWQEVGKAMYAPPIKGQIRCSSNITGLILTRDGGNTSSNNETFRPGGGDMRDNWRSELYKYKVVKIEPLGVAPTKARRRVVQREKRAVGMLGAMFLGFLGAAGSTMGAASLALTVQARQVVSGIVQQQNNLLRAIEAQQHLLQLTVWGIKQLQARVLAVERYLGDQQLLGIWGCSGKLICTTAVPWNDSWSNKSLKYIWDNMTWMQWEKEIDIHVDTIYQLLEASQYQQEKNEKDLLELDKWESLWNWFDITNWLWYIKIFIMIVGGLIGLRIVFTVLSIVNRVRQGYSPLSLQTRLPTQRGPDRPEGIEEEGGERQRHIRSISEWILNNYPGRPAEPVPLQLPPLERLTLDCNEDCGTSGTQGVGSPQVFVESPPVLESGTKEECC
For `Cc1cc(C)cc(-n2cccc2/C=C2/C(=N)N3C(=NC2=O)SN=C3S(C)(=O)=O)c1`, the IC50 was 11.6 µM (active).
With `O=[N+]([O-])c1cccc(S(=O)(=O)Nc2nc3ccccc3nc2Nc2cccc(S(=O)(=O)N3CCCCC3)c2)c1` the IC50 was 14.5 µM (active).
For `Cc1ccc(C)c(S(=O)(=O)/N=C2\C=C(NS(=O)(=O)c3ccccc3)C(=O)c3ccccc32)c1`, the IC50 was 12.9 µM (active).
For `CCCCCCc1c(C)c2ccc(OCC(=O)N[C@@H](Cc3ccccc3)C(=O)O)cc2oc1=O`, the IC50 was 22.8 µM (active).
For `O=C(O)CN1C(=O)/C(=C\c2cccc(OCc3ccc(Cl)cc3)c2)SC1=S`, the IC50 was 13.6 µM (active).
For `O=C1NC(=S)N(c2ccc(F)cc2)C(=O)/C1=C/c1ccco1`, the IC50 was 15.6 µM (active).
